This note sets out measurements from patent US20160213639A1, “COMPOSITIONS AND METHODS FOR TREATING NON-ALCOHOLIC STEATOHEPATITIS” (MOCHIDA PHARMACEUTICAL CO., LTD., priority 2013, published 2016).

Data set [1] in a line: Gastric fluid levels in pylorus-ligated rats. Format: in vivo. To be noted: 3000 mg/kg oral dose.
The subject of data set [2] is methionine-choline deficient diet rat model of nonalcoholic steatohepatitis. In words: Methionine-choline deficient diet rat model of nonalcoholic steatohepatitis. Format: in vivo. To be noted: repeat oral administration at 1000 mg/kg.
Another data set deals with platelets. The experiment in a line: Platelet anti-aggregation. Format: cell-based. Particulars: platelets from rats, rabbits and humans.
Data set [3] can be described thus: ADME of 14C-EPA-E in rats (absorption, distribution, metabolites, excretion). Format: in vivo. Here is the method: EPADEL® is a product containing ethyl all-cis-5,8,11,14,17-eicosapentaenoate (EPA-E), one of the n-3 essential fatty acids. The preclinical absorption, distribution, metabolism and excretion (ADME) characteristics of EPA-E have been determined primarily in rats.
After administration of ^14C-EPA-E into the ligated intestine of rats, the residual radioactivity in the intestine at 24 hours was only 4.6% of the administered dose. Radioactivity transferred to the plasma and lymph was mainly detected in the triglyceride (TG) fraction in the early phase after dosing, while distribution to the free fatty acid (FFA) fraction was slight at all timepoints. […] Orally administered EPA-E was primarily incorporated in adrenal gland lipids as cholesterol esters of the fatty acids eicosapentaenoic acid (EPA), docosapentaenoic acid (DPA) and docosahexaenoic acid (DHA).
Consequently, when EPA-E is administered orally to humans, it would appear that it is well absorbed, even though the unchanged ethyl ester form is not detected, and the free form (EPA) is only detected at a very low level, in the blood. Due to this absorption mechanism of essential fatty acids, the administered EPA-E exists as a blood-constituent fatty acid in the total lipids. In fact, according to the approval package document of Lovaza®, the free form of EPA is undetectable in the circulation (<1 μM) following an oral dose of 4 g of Omacor® (a mixture of the ethyl esters of EPA and DHA) Following oral administration of EPA-E, EPA, DPA and DHA were isolated and identified as metabolites in tissues and plasma. EPA, DPA and DHA were incorporated into TG and PL. Radioactivity was primarily excreted in expired air (44%) after single oral administration at 30 mg/kg EPA-E with minimal excretion in bile and urine (˜3%) and approximately 20% excreted in feces.
Renal excretion was the elimination route for several minor highly polar metabolites (<0.4%), but EPA-E, EPA, DPA or DHA were not detected in the urine. In feces, EPA-E and EPA, evidently derived from the unabsorbed drug, were detected; however, no DPA or DHA was detected in the feces.
In the total lipid fraction of the liver, the radioactivity originated mainly from EPA, DPA and DHA. Thus, it is considered that EPA, DPA and DHA are the predominant metabolites of ^14C-EPA-E in tissues, as constituent fatty acids of the total lipid fraction.

Data set [4] is described as follows: Lipid lowering in animal models. Type of data set: in vivo. To be noted: rats, hamsters and rabbits.
Data set [5] concerns diet-induced hepatic steatosis model. The experiment in a line: Mouse diet-induced hepatic steatosis model. Format: in vivo. To be noted: repeat oral administration at >0.1 mg/g.
In data set [6] the test system is galactosamine-induced steatohepatitis mouse model. In words: Galactosamine-induced steatohepatitis mouse model. Format: in vivo. To be noted: oral administration at 1000 mg/kg; by suppressing triglyceride accumulation.
Setting [7] is: single oral administration at 30 mg/kg.

As for `CC/C=C\C/C=C\C/C=C\C/C=C\C/C=C\CCCC(=O)OCC` [EPA-E, ethyl all-cis-5,8,11,14,17-eicosapentaenoate], in data set [1], the gastric fluid levels entry is listed as “reduction in gastric fluid levels”. In addition, the fibrosis result in data set [2] was “inhibited fibrosis”. For the same compound, the effects on platelets result in the data set on platelets is “anti-aggregation effects”. Moreover, the “radioactivity excreted in expired air” value in data set [3] (rat, in vivo, po, 30 mg/kg) worked out at 44%. In addition, in data set [3] (setting [7]), the “radioactivity excreted in bile and urine” value was roughly 3%; the “radioactivity excreted in feces” value is “approximately 20%”. Moreover, in data set [4], the lipids entry is given as “lower lipids”. In data set [5], the fat accumulation result is recorded as “suppressed fat accumulation” and the “hepatic SREBP-1c levels” value was “suppressing hepatic SREBP-1c levels”. Also, the progression of steatohepatitis entry in data set [6] is “retarded progression of steatohepatitis”.
